From patent US9434714B2, “Pyrimidine imidazole amines as modulators of kinase activity” (Merck Patent GmbH, priority 2014, dated 2016)

Assays:
P70S6K (T412E mutant) = target: T1, P70S6K (T412E mutant) (Homo sapiens, UniProt P23443, T412E); assay: P70S6K enzyme assay; type: biochemical; details: 24 μM ATP, 90 min at 25° C., mobility shift (Caliper)
T1 construct: purchased Millipore
Procedure: P70S6K inhibitor compounds were diluted and plated in 96 well plates. A reaction mixture including the following components was then added to the compound plate to initiate the enzyme reaction; P70S6K (3 nM, T412E mutant, Millipore) was mixed with 24 μM ATP in an assay buffer containing 100 mM Hepes (pH 7.5), 5 mM MgCl2, 1 mM DTT, 0.015% Brij and 1 μM of the substrate peptide FITC-AHA-AKRRRLSSLRA-OH (derived from the S6 ribosomal protein sequence, FITC=fluorescein isothiocyanate, AHA=6-aminohexanoic acid). The reaction was incubated for 90 min at 25° C., before the addition of 10 mM EDTA to stop the reaction. The proportion of substrate and product (phosphorylated) peptide was analysed on a Caliper Life Sciences Lab Chip 3000, using a pressure of −1.4 psi, and upstream and downstream voltages of −3000 and −700 respectively. Product peaks were resolved before substrate peaks on the resulting chromatograms.

His-AKT (Full Length) = target: T2, His-AKT (Full Length) (Homo sapiens, UniProt P31749); assay: AKT enzyme assay; type: biochemical; details: 160 uM ATP, 90 min at 25 C, off-chip mobility shift (Caliper)
T2 construct: His-AKT (Full Length); His; purchased Invitrogen P2999
T2 sequence (P31749 whole entry): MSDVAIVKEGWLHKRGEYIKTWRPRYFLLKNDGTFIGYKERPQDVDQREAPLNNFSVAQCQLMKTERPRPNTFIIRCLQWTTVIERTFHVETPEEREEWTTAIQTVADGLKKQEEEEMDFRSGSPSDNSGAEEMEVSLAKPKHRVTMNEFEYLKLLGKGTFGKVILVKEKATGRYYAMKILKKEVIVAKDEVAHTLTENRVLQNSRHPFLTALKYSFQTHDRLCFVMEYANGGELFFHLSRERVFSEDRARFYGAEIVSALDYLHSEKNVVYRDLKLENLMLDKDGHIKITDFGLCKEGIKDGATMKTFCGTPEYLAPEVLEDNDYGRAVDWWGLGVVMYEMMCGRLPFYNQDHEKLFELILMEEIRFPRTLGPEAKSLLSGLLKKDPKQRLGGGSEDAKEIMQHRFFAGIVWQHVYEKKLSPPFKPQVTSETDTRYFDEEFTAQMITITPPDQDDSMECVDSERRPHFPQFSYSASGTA
Procedure: A TTP Mosquito liquid handling instrument was used to place 125 nl of the appropriate concentration of inhibitor in 100% DMSO (for a dose response curve calculation) into each well of a 384-well plate. To this reaction components were added to a final volume of 12.5 μl: • 0.1 ng/μ1 His-AKT (Full Length), (Invitrogen, Part # P2999, Lot #641228C). • 160 uM ATP (Fluka, 02055) • 1 mM DTT (Sigma, D0632) • 1 mM MgCl2 (Sigma, M1028) • 1 μM substrate peptide (sequence FITC-AHA-GRPRTSSFAEG-NH2), synthesized by Tufts Peptide Synthesis service. • 100 mM HEPES pH 7.5 (Calbiochem, 391338) • 0.015% Brij-35 (Sigma, B4184)
The reaction was incubated for 90 min at 25 C, and then stopped by the addition of 70 μl of Stop buffer (100 mM HEPES pH 7.5, 0.015% Brij-35, 10 mM EDTA (Sigma, E7889)).
The plate was read on a Caliper LC 3000 in an Off-Chip mobility shift assay format, using the following parameters for a 12-sipper chip: screening pressure—2.3 psi, upstream voltage—500, and downstream voltage—3000. These conditions cause unphosphorylated substrate and phosphorylated product peptide to resolve as separate peaks allowing direct measurement of percentage of conversion of substrate to product. The percent conversion was plotted against concentration of inhibitor to produce a sigmoidal dose response curve, from which an IC50 was calculated.

T1 sequence (P23443 whole entry T412E): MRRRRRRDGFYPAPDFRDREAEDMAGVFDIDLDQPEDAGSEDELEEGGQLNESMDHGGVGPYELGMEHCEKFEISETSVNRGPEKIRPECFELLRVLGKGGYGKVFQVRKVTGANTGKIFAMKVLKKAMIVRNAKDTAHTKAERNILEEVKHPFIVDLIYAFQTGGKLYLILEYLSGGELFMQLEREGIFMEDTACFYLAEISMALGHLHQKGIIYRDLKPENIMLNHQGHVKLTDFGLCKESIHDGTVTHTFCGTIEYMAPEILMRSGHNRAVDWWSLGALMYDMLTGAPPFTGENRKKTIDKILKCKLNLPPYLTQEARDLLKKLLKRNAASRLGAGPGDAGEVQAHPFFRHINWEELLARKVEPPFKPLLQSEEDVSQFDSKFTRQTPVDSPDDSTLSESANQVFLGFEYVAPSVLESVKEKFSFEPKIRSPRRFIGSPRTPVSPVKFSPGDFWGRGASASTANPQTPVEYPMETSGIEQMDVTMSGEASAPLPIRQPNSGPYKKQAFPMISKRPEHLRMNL

Row | SMILES | IC50 (P70S6K (T412E mutant)) [nM] | IC50 (His-AKT (Full Length)) [nM]
1 | CC(C)c1cc(-c2cn(CCN3CCC3)c(C3CCN(c4ncnc(N)c4-c4ccncc4)CC3)n2)ccn1 [Compound 13, 6-{4-[1-(2-Azetidin-1-yl-ethyl)-4-(2-isopropyl-pyridin-4-yl)-1H-imidazol-2-yl}-piperidin-1-yl]-5-Pyridin-4-yl-pyrimidin-4-ylamine] | 3 to 15 | > 15
2 | Cc1cc(-c2cn(CCN3CCC3)c(C3CCN(c4ncnc(N)c4-c4ccncc4)CC3)n2)ccc1F [Compound 8, 6-{4-[1-(2-Azetidin-1-yl-ethyl)-4-(4-fluoro-3-methyl-phenyl)-1H-imidazol-2-yl]-piperidin-1-yl}-5-pyridin-4-yl-pyrimidin-4-ylamine] | 3 to 15 | 3 to 15
3 | CCc1c(N)ncnc1N1CCC(c2nc(-c3ccc(F)c(C)c3)cn2CCN2CCC2)CC1 [Compound 1, 6-{4-[1-(2-Azetidin-1-yl-ethyl)-4-(4-fluoro-3-methyl-phenyl)-1H-imidazol-2-yl]-piperidin-1-yl}-5-ethyl-pyrimidin-4-ylamine] | < 3 | 3 to 15
4 | CN(C)CCn1cc(-c2ccc(F)c(C(F)(F)F)c2)nc1C1CCN(c2ncnc(N)c2Cl)CC1 [Compound 23] | < 3 | 3 to 15
